# Like-named read-outs stand apart in the source and are kept apart here.
# [1] = 4 grams in total added to 600 milliliters of urine
# [2] = 5 grams in total added to 600 milliliters of urine
# Procedure: Accordingly, various compositions were tested to determine their effect on the pH when added to 600 milliliters of urine.
Resulting pH [1],Resulting pH [2],Compound
3.8,3.7,"O=C(O)CC(O)(CC(=O)O)C(=O)O [Pure citric acid in granular form, citric acid]"
–,4.2,"O=C(O)CCC(=O)O [Pure succinic acid in granular form, succinic acid]"
3.4,3.3,"O=C(O)C(O)C(O)C(=O)O (centres unmarked) [Pure tartaric acid in granular form, tartaric acid]"

# — patent US20070154445A1, “Compositions, methods and kits for preventing the decomposition of urine” (priority 2006, published 2007)
